# Patent publication US20240207421A1, “NERVE TARGETING PEPTIDES AND METHODS OF USE” (ALUME BIOSCIENCES, INC., priority 2020, published 2024)
# What was measured:
# [1] = system: excised human nerve tissue (or nerve extracts); test: Phage display library screening (Example 2), NEB tissue-binding peptides: nerve tissue and nerve extracts versus muscle; conditions: unique sequence count, peptides not binding muscle extracts; for Count Excised Nerve: tissue target: excised nerve; for Count Nerve Extract: tissue target: nerve extract; for Count Neuron: tissue target: neuron
# Procedure: Phage display library screens were used to identify peptides that bind to target proteins (including specific laminin trimers) that are expressed in human nerves, as described in Table 3. These screens were also carried out to identify peptides that could bind selectively to nerves versus muscle. Such peptides could therefore be useful for systemic in-vivo labeling of nerves during fluorescence assisted surgery. Specifically, m 13 phage libraries expressing 7 or 12 random amino acid peptides, or a cyclic peptide CX7C, on the N-terminus of the minor coat protein pIII (New England Biolabs; NEB) were processed through multiple rounds of selection for binding to target proteins expressed in nerves, or to excised human nerves, nerve extracts, or muscle, as described further below.
# To identify peptides selective for nerves versus muscle, phage from the same libraries used for specific target proteins were used to screen against excised human nerve tissue (or nerve extracts) and human muscle tissue.
# Excised Nerve Tissue: Phage were processed through multiple cycles of selection, with representative phage being isolated and sequenced after each selection cycle. Specifically, for selection using human nerve tissue, a sample of […] tissue (2 mm by 2 mm) was washed prior to mixing and incubation with a phage library. After incubation, the mixture (containing mostly intact nerves with phage particles that had variable affinity for nerves) was centrifuged and the nerve pellet washed multiple times with PBS to remove phage with little or no affinity for nerve tissue. The pellet was homogenized and plated for titering and reamplification. Phage that were bound at each round were sequenced. NextGen sequencing of pools after 2, 3 and 4 rounds of selection were used to isolate candidate sequences that were further analyzed using bioinformatics.
# Nerve Extracts: Phage libraries were incubated for up to 24 hours at 4° C. in 96 well plates that had been coated with a human nerve extract. Plates were then washed with PBS and phage were eluted using 0.2M glycine pH 2.0. Phage supernatants where then neutralized with Tris pH 9.0 prior to plating on TG1 bacteria and LB agar plates. Colonies were counted to determine titer followed by DNA preparation of pools of phage and NextGen sequencing. After rounds of selection, phage were pooled and amplified for iterative selection. Phage that eluted by 0.2M glycine pH 2.0 (the nerve binders) at each round were sequenced. NextGen sequencing of pools after 2, 3 and 4 rounds of selection were used to isolate candidate sequences that were further analyzed using bioinformatics.
# Muscle Tissue: Phage were processed through multiple cycles of selection, with representative phage being isolated and sequenced after each selection cycle. Specifically, for selection using human skeletal muscle tissue, a sample of skeletal muscle tissue (2 mm by 2 mm) was washed prior to mixing and incubation with a phage library. After incubation, the mixture (containing mostly intact muscle with phage particles that had variable affinity for muscle) was centrifuged and the muscle pellet washed multiple times with PBS to remove phage with little or no affinity for muscle tissue. The pellet was then homogenized and plated for titering and reamplification. Phage that were bound at each round were sequenced. NextGen sequencing of pools after 2, 3 and 4 rounds of selection were used to isolate candidate sequences that were further analyzed using bioinformatics.
# For all NEB sequence datasets, a python script was used to translate, trim, and filter the peptide sequences (see details above). A python script was used to group peptides from different assays according to tissue target (muscle, nerve, neuron, or nerve extract) and combine the unique sequence counts for each peptide. […]
# Laminin 421/521 = test: phage display, NGS count
Count (Laminin 421/521),Molecule,Count Excised Nerve [1],Count Nerve Extract [1],Count Neuron [1]
–,HSGAYTIQASYK,9,15,6
–,IPGQTPRMPHSK,8,21,13
–,KTTSMTALTMGL,9,21,12
–,LQTHSITYRHER,7,19,12
–,MLKMERPGRMAY,9,15,6
–,MLRHVDLTEPNA,7,13,6
–,NAVHRPDLNLLA,15,22,7
–,NGMNWLQVHQLS,12,18,6
–,NRIGHGTATGTL,22,28,6
–,NTEYSRYTSIWK,8,14,6
–,NYAVGDRITKNI,18,25,7
–,QANLYYWDPSDL,8,17,9
–,QNIVENFIDNER,20,27,7
–,QRATNDILIRGW,9,17,8
–,QSTLGVHMLRVS,6,13,7
–,RTVITNEMLLLV,7,13,6
–,SDHTFKRVMFRW,8,15,7
–,SEPIEKGSRTIV,7,13,6
–,SGEYNLIKPNLL,20,27,7
–,SGWHLVMSMSIG,6,12,6
–,SLGSSFVQGGEL,12,19,7
–,SLQLWNSEKVTT,10,16,6
–,SPMANVWFNRLS,7,17,10

Count (Laminin 421/521),Molecule,Count Excised Nerve [1],Count Nerve Extract [1],Count Neuron [1]
–,SSLYMNGWSRDQ,23,49,26
–,TDNGSFLGKLTS,7,14,7
–,TEWMVRASSIGE,6,14,8
–,TLNARDQLSING (nerve-binding peptide),7,13,6
–,TSAHHDRTLAGS,6,12,6
–,VERLNWPKRMQS,27,43,16
–,VESGHAYSVSSW,14,20,6
–,VNYQTPWNKHWY,10,21,11
–,VPVPKKMSLDPT,8,14,6
–,VRLPMLASMGHQ,19,40,21
–,VRSDMVSGGLQK,14,20,6
–,VTDMLGIPKLHA,18,28,10
–,WDVAWLERRALH,23,43,20
–,WEKHTGPLSRYL,6,19,13
–,WPLKRFEQLPLK,6,14,8
–,WSGGMEDNSNRL,9,18,9
–,WVGPDIIAQMRI,8,16,8
–,YAGQNGWMRSDL,28,45,17
–,YANGIEAKDSSR,14,20,6
–,YAWDTVASRNYK,14,20,6
–,YSANSNPKKSLM,11,17,6
27,TSAVSLR,–,–,–
27,HQSVTGVRSHFH,–,–,–

Count (Laminin 421/521),Molecule,Count Excised Nerve [1],Count Nerve Extract [1],Count Neuron [1]
28,QPTPSQIKFTRT,–,–,–
27,CLQKNHKFC,–,–,–
27,SVVGWAAPRTAQ,–,–,–
27,VIADQSKSAVAV,–,–,–
28,AQNLRVHAWASL,–,–,–
28,KFADTKLTSLRY,–,–,–
28,CTDGRNFVC,–,–,–
27,CKSPIKGTC,–,–,–
28,QLQHVHL,–,–,–
27,GINLRALDLHAN,–,–,–
27,DRMYSTVPAEGL,–,–,–
28,GIVPSRHTTGLG,–,–,–
27,EAVSTQI,–,–,–
27,CVLKCEDQKYRG,–,–,–
28,CTSSSHQTC,–,–,–
28,ETGGLAYGSGQK,–,–,–
28,CTGETLLTC,–,–,–
28,GWTSDLSRNVRG,–,–,–
28,CPMHQSKTC,–,–,–
28,HTQIHRL,–,–,–
27,TILKPAAQGFAD,–,–,–
27,TTLWLDRDEALK,–,–,–
